Like-named read-outs stand apart in the source and are kept apart here.
Key:
[1] = test system: THP1 acute monocytic leukemia cells; experiment: cells; format: cell-based, human; conditions: read-out: IC50 THP1
[2] = test system: normal peripheral blood-derived mononuclear cells (PBMC); experiment: cells; format: cell-based; conditions: read-out: IC50 PBMC
THP1 cells [3] = format: cell-based, human; parameters: concentration or dose not given beside the values
[4] = test system: HL60 promyelocytic leukemia cells; experiment: cells; format: cell-based, human; conditions: read-out: IC50 HL60
[5] = test system: RPMI8226 myeloma cancer cells; experiment: cells; format: cell-based, human; conditions: read-out: IC50 RPMI8226
THP1 cells [6] = experiment: annexin V/propidium iodide apoptosis assay, THP1; format: cell-based, human; conditions: THP1, 48 h, 0.3 μM, annexin V/PI
From the text: (§1) Double staining of cells with Annexin V and propidium iodide (PI) was used according to the protocol described in our previous article. This method is a useful tool for distinguishing viable cells (unstained with either fluorochrome) from early apoptotic cells (stained only with Annexin V), late apoptotic (stained with Annexin V and propidium iodide) and necrotic (dead) cells (stained only with PI).
(§2) Briefly, 5 × 10^5 control and drug treated cells were washed with cold PBS and resuspended in 500 μl binding buffer (delivered from producer) that contained 5 μl of Annexin V fluorescein isothiocyanate (FITC), 5 μl of PI and stained for 15 minutes in room temperature. Finally, at least 10^4 cells were analyzed for FITC and PI fluorescence (Ex ~488 nm; Em ~530 nm) using a flow cytometer (LSR II, Becton Dickinson). The cells stained with the annexin V/propidium iodide mixture were then visualized using fluorescence microscopy (Olympus IX70, Japan), magnification × 200.

HL60 cells = experiment: annexin V/propidium iodide apoptosis assay, HL60; format: cell-based, human; conditions: HL60, 48 h, 0.7 μM, annexin V/PI
From the text: as §1, §2

caspase-9 in THP1 cells = format: cell-based, human
RPMI8226 cells [7] = experiment: annexin V/propidium iodide apoptosis assay, RPMI8226; format: cell-based, human; conditions: RPMI8226, 48 h, 3 µM, annexin V/PI
From the text: as §1, §2

[8] = test system: intracellular calcium (Ca2+) in THP1 cells; experiment: intracellular calcium measurement (Fluo-4-NW), THP1; format: cell-based, human; conditions: THP1, IC50 dose, 4 h
Experimental: (§3) Intracellular calcium level was determined using the fluorescent probe Fluo-4NW according to the protocol described in our previous article. After entering the cell, Fluo-4NW is converted by cytosolic hydrolases to the active form, having the possibility of binding of calcium ions. As a result of joining of calcium ions, the probe emits fluorescence (λem = 538 nm) after excitation with light of wavelength 485 nm.
(§4) Cells were cultured and treated with investigated compounds on Petri dishes. Next, the cells were plated in 96-well black fluorimetric plates (2 × 10^4 cells/well). The growth medium was removed and the cells were washed with PBS in order to eliminate sources of baseline fluorescence. Finally a dye loading solution (Fluo-4-NW dye, 4-[(Dipropylamino)sulfonyl] benzoic acid (Probenecid) - used to inhibit extrusion of the indicator out of the cell by organic anion transporters, Hanks’ balanced salt solution (HBSS), 20 mM N-(2- hydroxyethyl)piperazine-N’-(2-ethanesulfonic acid) buffer solution (HEPES)) was added in a volume of 100 μl per well and incubated for 30 min in the total darkness at 37 °C, and then for next 30 min. at room temperature. The measurement was done on Fluoroskan Ascent FL microplate reader (Labsystems, Sweden) using 494 nm excitation and 516 nm emission wavelengths.

[9] = test system: caspase-3/-7 in THP1 cells; format: cell-based, human
[10] = test system: caspase-3/-7 in RPMI8226 cells; format: cell-based, human
[11] = test system: caspase-3/-7 in HL60 cells; format: cell-based, human
RPMI8226 cells [12] = format: cell-based, human
[13] = test system: intracellular calcium (Ca2+) in HL60 cells; experiment: intracellular calcium measurement (Fluo-4-NW), HL60; format: cell-based, human; conditions: HL60, IC50 dose
Experimental: as §3, §4

Which IC50 ([1]; Homo sapiens, THP-1, 48 h) does the source give for `COC(=O)C(Cc1ccc(N(CCCl)CCCl)cc1)N=CN1CCOCC1` (centres unmarked) [EM-MOR-MEL] here?
Its IC50 is 0.07 ± 0.004 µM.

What about the IC50 ([2]; PBMC, 48 h) of the same molecule?
The IC50 was 6.41 ± 0.85 µM.

What about the “DNA damage (tail DNA), THP1” value (THP1 cells [3]) of the same molecule?
The value was ~ 13%.

And the IC50 ([4]; Homo sapiens, HL-60, 48 h)?
Its IC50 is 0.49 ± 0.098 µM.

What about the IC50 ([5]; Homo sapiens, RPMI-8226, 48 h) of the same molecule?
Its IC50 is 3.6 µM.

With `CCCN(C=NC(Cc1ccc(N(CCCl)CCCl)cc1)C(=O)O)CCC` (centres unmarked) [DIPR-MEL] as the molecule, how does the IC50 ([1]; Homo sapiens, THP-1, 48 h) read?
Its IC50 is > 30 µM.

And the IC50 ([4]; Homo sapiens, HL-60, 48 h)?
The IC50 was > 30 µM.

And the IC50 ([5]; Homo sapiens, RPMI-8226, 48 h)?
Its IC50 is > 30 µM.

For `N[C@@H](Cc1ccc(N(CCCl)CCCl)cc1)C(=O)O` [MEL, melphalan, reference compound], which “late apoptotic cells, THP1” value (THP1 cells [6]) is on record?
Its value is ~17%.

And the “late apoptotic cells, HL60” value (HL60 cells)?
Its value is ~35%.

What about the “Caspase 9 activity THP1, 24 h” value (caspase-9 in THP1 cells) of the same molecule?
The value was 316.5 ± 17.31%.

And the IC50 ([1]; Homo sapiens, THP-1, 48 h)?
Its IC50 is 6.26 µM.

What about the “late apoptotic cells, RPMI8226” value (RPMI8226 cells [7]) of the same molecule?
Its value is “approximately 25%”.

What about the IC50 ([4]; Homo sapiens, HL-60, 48 h) of the same molecule?
Its IC50 is 3.78 µM.

What about the “level of intracellular calcium, THP1” value ([8]; control = 100%) of the same molecule?
The value was 131.27 ± 10.08%.

What about the “Caspase 3 activity THP1, 24 h” value [9] of the same molecule?
Its value is 429.08 ± 48.10%.

What about the “Caspase 3 activity RPMI8226, 24 h” value [10] of the same molecule?
The value was 463.75 ± 64.5%.

And the “Caspase 3 activity HL-60, 24 h” value [11]?
The value was 736.92 ± 105.48%.

And the IC50 ([5]; Homo sapiens, RPMI-8226, 48 h)?
The IC50 was 8.9 µM.

What does the source list for `CCOC(=O)C(Cc1ccc(N(CCCl)CCCl)cc1)N=CN1CCOCC1` (centres unmarked) [EE-MOR-MEL]?
IC50 ([1]; Homo sapiens, THP-1, 48 h): 0.04 µM; DNA damage (tail DNA), THP1 (THP1 cells [3]): ~ 13%; IC50 ([4]; Homo sapiens, HL-60, 48 h): 0.32 µM; fold increase of intracellular calcium ions, THP1 [8]: approx. 2.8 fold; Caspase 3 activity THP1, 24 h [9]: 981.93 ± 51.79%; Caspase 3 activity HL-60, 24 h [11]: 1127.68 ± 39.24%; IC50 ([5]; Homo sapiens, RPMI-8226, 48 h): 3.13 µM

With `CCOC(=O)C(N)Cc1ccc(N(CCCl)CCCl)cc1` (centres unmarked) [EE-MEL] as the molecule, how does the IC50 [1] read?
The IC50 was 0.35 µM.

What about the IC50 [2] of the same molecule?
The IC50 was 2.2 ± 0.25 µM.

What about the “DNA damage (tail DNA), THP1” value (THP1 cells [3]) of the same molecule?
The value was ~ 15%.

And the IC50 [4]?
Its IC50 is 0.7 µM.

What about the “DNA damage (tail DNA), RPMI8226” value (RPMI8226 cells [12]) of the same molecule?
Its value is ~ 38%.

What about the “Caspase 3 activity THP1, 24 h” value [9] of the same molecule?
The value was 788.85 ± 83.40%.

What about the “Caspase 3 activity RPMI8226, 24 h” value [10] of the same molecule?
Its value is 656.19 ± 221.7%.

And the “fold increase of intracellular calcium, HL60, 24 h” value [13]?
The value was “approx. 2 fold”.

What about the “Caspase 3 activity HL-60, 24 h” value [11] of the same molecule?
Its value is 1225.64 ± 155.22%.

And the IC50 [5]?
The IC50 was 1.17 µM.

Which results are given for `O=C(O)C(Cc1ccc(N(CCCl)CCCl)cc1)N=CN1CCOCC1` (centres unmarked) [MOR-MEL]?
IC50 ([1]; Homo sapiens, THP-1, 48 h): > 30 µM; IC50 ([4]; Homo sapiens, HL-60, 48 h): > 30 µM; IC50 ([5]; Homo sapiens, RPMI-8226, 48 h): > 30 µM

What does the source list for `CCCN(C=NC(Cc1ccc(N(CCCl)CCCl)cc1)C(=O)OC)CCC` (centres unmarked) [EM-DIPR-MEL]?
late apoptotic cells, THP1 (THP1 cells [6]): comparable to that of the unmodified drug; IC50 ([1]; Homo sapiens, THP-1, 48 h): 0.41 µM; DNA damage (tail DNA), THP1 (THP1 cells [3]): ~ 7%; IC50 ([4]; Homo sapiens, HL-60, 48 h): 0.85 µM; DNA damage (tail DNA), RPMI8226 (RPMI8226 cells [12]): comparable to that of melphalan; IC50 ([5]; Homo sapiens, RPMI-8226, 48 h): 5.94 ± 0.65 µM; IC50 [5]: 4.85 µM

How did the “late apoptotic cells, THP1” value (THP1 cells [6]) turn out when `CCCN(C=NC(Cc1ccc(N(CCCl)CCCl)cc1)C(=O)OCC)CCC` (centres unmarked) [EE-DIPR-MEL] was run?
The value was “comparable to that of the unmodified drug”.

What about the IC50 ([1]; Homo sapiens, THP-1, 48 h) of the same molecule?
The IC50 was 0.69 µM.

What about the “DNA damage (tail DNA), THP1” value (THP1 cells [3]) of the same molecule?
Its value is ~ 7%.

And the IC50 ([4]; Homo sapiens, HL-60, 48 h)?
The IC50 was 1.05 µM.

And the “DNA damage (tail DNA), RPMI8226” value (RPMI8226 cells [12])?
Its value is “comparable to that of melphalan”.

What about the IC50 ([5]; Homo sapiens, RPMI-8226, 48 h) of the same molecule?
Its IC50 is 4.85 ± 0.195 µM.

What about the IC50 [5] of the same molecule?
Its IC50 is 5.94 µM.

Source: paper PMC7066245 (Scientific Reports, 2020)
